Measured values reported in patent US7781591B2, “Substituted 3-cyanopyridines as protein kinase inhibitors” (Wyeth LLC, priority 2006, dated 2010).

Biological target: T1, human PKCθ full length enzyme (Homo sapiens, UniProt Q04759)
T1 construct: human PKCθ full length enzyme (Panvera Cat# P2996); purchased Panvera P2996
Assay: PKCθ IMAP assay (fluorescence polarization)
Assay type: biochemical
Details: human PKCθ full length enzyme, IMAP; average value; read-out: IC50 PKCθ IMAP

T1 sequence (Q04759 whole entry): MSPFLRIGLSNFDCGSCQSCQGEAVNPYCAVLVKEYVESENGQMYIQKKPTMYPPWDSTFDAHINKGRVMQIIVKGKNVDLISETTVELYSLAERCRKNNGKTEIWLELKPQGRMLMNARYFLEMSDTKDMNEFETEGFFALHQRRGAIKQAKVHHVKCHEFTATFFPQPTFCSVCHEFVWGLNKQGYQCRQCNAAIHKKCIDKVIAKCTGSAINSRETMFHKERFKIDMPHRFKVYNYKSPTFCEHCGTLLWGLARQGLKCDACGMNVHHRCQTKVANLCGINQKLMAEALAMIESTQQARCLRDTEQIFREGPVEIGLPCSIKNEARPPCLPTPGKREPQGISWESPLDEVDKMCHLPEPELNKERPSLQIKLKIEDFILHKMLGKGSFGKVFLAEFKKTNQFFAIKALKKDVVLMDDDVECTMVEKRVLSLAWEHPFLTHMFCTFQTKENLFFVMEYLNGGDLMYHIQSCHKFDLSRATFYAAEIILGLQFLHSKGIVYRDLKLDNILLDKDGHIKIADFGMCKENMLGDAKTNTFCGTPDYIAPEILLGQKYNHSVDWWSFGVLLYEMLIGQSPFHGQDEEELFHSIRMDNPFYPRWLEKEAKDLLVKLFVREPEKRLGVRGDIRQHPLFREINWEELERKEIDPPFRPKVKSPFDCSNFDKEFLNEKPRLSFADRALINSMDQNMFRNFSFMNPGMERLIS

Compound | IC50 [nM]
CN(C)CCCOc1ccc(-c2cncc(C#N)c2Nc2cccc3[nH]ccc23)cn1 [Compound 356, 6′-[3-(dimethylamino)propoxy]-4-(1H-indol-4-ylamino)-3,3′-bipyridine-5-carbonitrile] | 40
CN(C)Cc1ccc(-c2cccc(-c3cncc(C#N)c3Nc3cccc4[nH]ccc34)c2)s1 [Compound 315, 5-(3-{5-[(dimethylamino)methyl]-2-thienyl}phenyl)-4-(1H-indol-4-ylamino)nicotinonitrile] | 10
N#Cc1cncc(-c2cccc(-c3ccc(C(=O)NCCCCO)cc3)c2)c1Nc1cccc2[nH]ccc12 [Compound 308, 3′-[5-cyano-4-(1H-indol-4-ylamino)pyridin-3-yl]-N-(4-hydroxybutyl)biphenyl-4-carboxamide] | 30
Cc1c(Nc2c(C#N)cncc2-c2nccn2C)ccc2[nH]ccc12 [Compound 542, 5-(1-methyl-1H-imidazol-2-yl)-4-[(4-methyl-1H-indol-5-yl)amino]nicotinonitrile] | 42
Cc1c(Nc2c(C#N)cncc2-c2ccc(OCCCCN3CCN(C)CC3)cc2)ccc2[nH]ccc12 [Compound 491, 4-[(4-methyl-1H-indol-5-yl)amino]-5-{4-[4-(4-methylpiperazin-1-yl)butoxy]phenyl}nicotinonitrile] | 15
CCN1CCN(CCOc2ccc(-c3cncc(C#N)c3Nc3ccc4[nH]ccc4c3C)cc2)CC1 [Compound 425, 5-{4-[2-(4-ethylpiperazin-1-yl)ethoxy]phenyl}-4-[(4-methyl-1H-indol-5-yl)amino]nicotinonitrile] | 9
Cc1c(Nc2c(C#N)cncc2-c2ccc(OCCCN3CCN(C)CC3)cc2)ccc2[nH]ccc12 [Compound 472, 4-[(4-methyl-1H-indol-5-yl)amino]-5-{4-[3-(4-methylpiperazin-1-yl)propoxy]phenyl}nicotinonitrile] | 19
CS(=O)(=O)c1cccc(-c2cncc(C#N)c2Nc2cccc3[nH]ccc23)c1 [Compound 255, 4-(1H-indol-4-ylamino)-5-[3-(methylsulfonyl)phenyl]nicotinonitrile] | 80
Cc1c(Nc2c(C#N)cncc2-c2ccc(CN(C)C)cc2)ccc2[nH]ccc12 [Compound 452, 5-{4-[(dimethylamino)methyl]phenyl}-4-[(4-methyl-1H-indol-5-yl)amino]nicotinonitrile] | 8
5-(2,4-dimethoxyphenyl)-4-(1H-indol-4-ylamino)nicotinonitrile [Compound 337] | 100
N#Cc1cncc(-c2cccc(Br)c2)c1Nc1cccc2c1CC(=O)N2 [Compound 346, 5-(3-bromophenyl)-4-[(2-oxo-2,3-dihydro-1H-indol-4-yl)amino]nicotinonitrile] | 540
Cc1c(Nc2c(C#N)cncc2-c2ccc(OCCN3CCC(N4CCCC4)CC3)cc2)ccc2[nH]ccc12 [Compound 423, 4-[(4-methyl-1H-indol-5-yl)amino]-5-{4-[2-(4-pyrrolidin-1-ylpiperidin-1-yl)ethoxy]phenyl}nicotinonitrile] | 11
Cc1c(Nc2c(C#N)cncc2-c2ccc(N)cc2)ccc2[nH]ccc12 [Compound 571, 5-(4-aminophenyl)-4-[(4-methyl-1H-indol-5-yl)amino]nicotinonitrile] | 16
Cc1c(Nc2c(C#N)cncc2-c2cccc(Br)c2)ccc2[nH]ccc12 [Compound 298, 5-(3-bromophenyl)-4-[(4-methyl-1H-indol-5-yl)amino]nicotinonitrile] | 4
Cc1c(Nc2c(C#N)cncc2-c2ccc(NC(=O)OCc3ccccc3)c(F)c2)ccc2[nH]ccc12 [Compound 527, benzyl (4-{5-cyano-4-[(4-methyl-1H-indol-5-yl)amino]pyridin-3-yl}-2-fluorophenyl)carbamate] | 27
COc1ccc(-c2cncc(C#N)c2Nc2ccc3[nH]ccc3c2C)cc1OCCN1CCN(C)CC1 [Compound 343, 5-{4-methoxy-3-[2-(4-methylpiperazin-1-yl)ethoxy]phenyl}-4-[(4-methyl-1H-indol-5-yl)amino]nicotinonitrile] | 10
Cc1c(Nc2c(C#N)cncc2-c2coc(CN3CCN(C)CC3)c2)ccc2[nH]ccc12 [Compound 503, 4-[(4-methyl-1H-indol-5-yl)amino]-5-{5-[(4-methylpiperazin-1-yl)methyl]-3-furyl}nicotinonitrile] | 12
N#Cc1cncc(-c2cc3cc(CNCCc4ccccc4)ccc3s2)c1Nc1cccc2[nH]ccc12 [Compound 287, 4-(1H-indol-4-ylamino)-5-(5-{[(2-phenylethyl)amino]methyl}-1-benzothien-2-yl)nicotinonitrile] | 3
COc1ccc(-c2cncc(C#N)c2Nc2ccc(C)c3cc[nH]c23)cc1OC [Compound 530, 5-(3,4-dimethoxyphenyl)-4-[(4-methyl-1H-indol-7-yl)amino]nicotinonitrile] | 179
N#Cc1cncc(-c2cccc(-c3ccc(C(=O)NC4CCCCC4)cc3)c2)c1Nc1ccc2[nH]ccc2c1 [Compound 202, 3′-[5-cyano-4-(1H-indol-5-ylamino)pyridin-3-yl]-N-cyclohexylbiphenyl-4-carboxamide] | 340
COc1ccc(-c2cncc(C#N)c2Nc2cccc3c2CC(=O)N3)cc1OC [Compound 329, 5-(3,4-dimethoxyphenyl)-4-[(2-oxo-2,3-dihydro-1H-indol-4-yl)amino]nicotinonitrile] | 8210
CN1CCN(Cc2ccc3oc(-c4cncc(C#N)c4Nc4ccc5[nH]ccc5c4)cc3c2)CC1 [Compound 485, 4-(1H-indol-5-ylamino)-5-{5-[(4-methylpiperazin-1-yl)methyl]-1-benzofuran-2-yl}nicotinonitrile] | 5
N#Cc1cncc(-c2cc3cc(CNCc4ccccc4)ccc3s2)c1Nc1cccc2[nH]ccc12 [Compound 286, 5-{5-[(benzylamino)methyl]-1-benzothien-2-yl}-4-(1H-indol-4-ylamino)nicotinonitrile] | 1
CCN1CCN(CCOc2cc(-c3cncc(C#N)c3Nc3ccc4[nH]ccc4c3)ccc2OC)CC1 [Compound 234, 5-{3-[2-(4-ethylpiperazin-1-yl)ethoxy]-4-methoxyphenyl}-4-(1H-indol-5-ylamino)nicotinonitrile] | 190

Biological target: T2, purified recombinant full length PKC theta (Panvera, P2996) (Homo sapiens, UniProt Q04759)
T2 construct: purified recombinant full length PKC theta (Panvera, P2996); purchased Panvera P2996
Assay: Radioactive kinase assay for inhibition of full length (FL) PKCθ
Assay type: biochemical
Details: average value
Procedure: This assay is based on the phosphorylation of a biotinylated substrate by a kinase utilizing radiolabeled ATP (ATP γ P33). The substrate was a biotinylated peptide with a sequence of biotin-[…]-C(O)NH2. […] The assay buffer was composed of 100 mM Hepes, pH7.5, 2 mM MgCl2, 20 mM β-glycerophosphate and 0.008% TritonX 100. A reaction mixture of ATP, ATP γ P33 (PerkinElmer), DTT, and the enzyme was prepared in the assay buffer and added to a 96-well polypropylene plate. The compound (diluted in DMSO in a separate 96-well polypropylene plate) was added to the reaction mixture and incubated at room temperature. Following the incubation, the peptide substrate was added to the reaction mixture to initiate the enzymatic reaction. The reaction was terminated with the addition of a stop solution (100 mM EDTA, 0.2% TritonX100, and 20 mM NaHPO4) and transferred from the assay plate to a washed streptavidin-coated 96-well scintiplate (PerkinElmer). […] Counts were recorded for each well as corrected counts per minute (CCPM). The counts were considered corrected because they were adjusted according to a P33 normalization protocol, which corrects for efficiency and background differences between the instrument detectors (software version 4.40.01).
A Radioactive Kinase Assay for Inhibition of Full Length (FL) PKCθ Inhibitors
This assay differs from what was described above in that the enzyme used was purified recombinant full length PKC theta (Panvera, P2996).

T2 sequence (Q04759 whole entry): as above

Compound | IC50 [nM]
N#Cc1cncc(-c2cccc(OCCN3CCCC3)c2)c1Nc1ccc2[nH]ccc2c1 [Compound 174, 4-(1H-indol-5-ylamino)-5-[3-(2-pyrrolidin-1-ylethoxy)phenyl]nicotinonitrile] | 70
N#Cc1cncc(-c2cccc(-c3ccc(C(=O)N4CCOCC4)cc3)c2)c1Nc1ccc2[nH]ccc2c1 [Compound 206, 4-(1H-indol-5-ylamino)-5-[4′-(morpholin-4-ylcarbonyl)biphenyl-3-yl]nicotinonitrile] | 1140
COCCOc1cc(-c2cncc(C#N)c2Nc2ccc3[nH]nnc3c2)ccc1OC [Compound 158, 4-(1H-1,2,3-benzotriazol-5-ylamino)-5-[4-methoxy-3-(2-methoxyethoxy)phenyl]nicotinonitrile] | 37400
COCCOc1cc(-c2cncc(C#N)c2Nc2ccc3cc[nH]c3c2)ccc1OC [Compound 155, 4-(1H-indol-6-ylamino)-5-[4-methoxy-3-(2-methoxyethoxy)phenyl]nicotinonitrile] | 7800
N#Cc1cncc(-c2ccccc2-c2cccc(Cl)c2)c1Nc1ccc2[nH]ccc2c1 [Compound 144, 5-(3′-chlorobiphenyl-2-yl)-4-(1H-indol-5-ylamino)nicotinonitrile] | 910
N#Cc1cncc(-c2ccccc2-c2ccsc2)c1Nc1ccc2[nH]ccc2c1 [Compound 146, 4-(1H-indol-5-ylamino)-5-[2-(3-thienyl)phenyl]nicotinonitrile] | 1330
N#Cc1cncc(-c2cccc(OCCN3CCCC3)c2)c1Nc1cccc2[nH]ccc12 [Compound 169, 4-(1H-indol-4-ylamino)-5-[3-(2-pyrrolidin-1-ylethoxy)phenyl]nicotinonitrile] | 30
CN(C)C(=O)c1ccc(-c2cccc(-c3cncc(C#N)c3Nc3ccc4[nH]ccc4c3)c2)cc1 [Compound 122, 3′-[5-cyano-4-(1H-indol-5-ylamino)pyridin-3-yl]-N,N-dimethylbiphenyl-4-carboxamide] | 340
N#Cc1cncc(-c2cccc(-c3ccncc3)c2)c1Nc1ccc2[nH]ccc2c1 [Compound 121, 4-(1H-indol-5-ylamino)-5-(3-pyridin-4-ylphenyl)nicotinonitrile] | 170
COCCOc1cc(-c2cncc(C#N)c2Nc2cccc3[nH]ccc23)ccc1OC [Compound 153, 4-(1H-indol-4-ylamino)-5-[4-methoxy-3-(2-methoxyethoxy)phenyl]nicotinonitrile] | 40
COCCOc1ccc(-c2cncc(C#N)c2Nc2ccc3[nH]ccc3c2)cc1OC [Compound 160, 4-(1H-indol-5-ylamino)-5-[3-methoxy-4-(2-methoxyethoxy)phenyl]nicotinonitrile] | 140
CN1CCN(C(=O)c2ccc(-c3cccc(-c4cncc(C#N)c4Nc4ccc5[nH]ccc5c4)c3)cc2)CC1 [Compound 207, 4-(1H-indol-5-ylamino)-5-{4′-[(4-methylpiperazin-1-yl)carbonyl]biphenyl-3-yl}nicotinonitrile] | 530
